Source: PubChem BioAssay (NCI)
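Following 48 hours of exposure in 96-well plates, responses at five concentrations were used to interpolate endpoints linearly. GI50 is the concentration that inhibits growth by half. TGI: concentration producing complete growth inhibition.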

Tests used:
Assay in all cases: growth of human tumour cells (NCI), 48 h
PC-3 prostate = system: PC-3 prostate
M14 melanoma = system: M14 melanoma
IGROV1 ovarian = system: IGROV1 ovarian
SR leukemia = system: SR leukemia
COLO 205 colon = system: COLO 205 colon
U251 CNS = system: U251 CNS
HCT-15 colon = system: HCT-15 colon
CAKI-1 renal = system: CAKI-1 renal
MCF7 breast = system: MCF7 breast
NCI-H226 lung = system: NCI-H226 lung
K-562 leukemia = system: K-562 leukemia
BT-549 breast = system: BT-549 breast
SK-MEL-5 melanoma = system: SK-MEL-5 melanoma
RPMI-8226 leukemia = system: RPMI-8226 leukemia
MOLT-4 leukemia = system: MOLT-4 leukemia
MDA-MB-435 = system: MDA-MB-435
MALME-3M melanoma = system: MALME-3M melanoma
KM12 colon = system: KM12 colon
EKVX NSCLC = system: EKVX NSCLC
NCI-H522 lung = system: NCI-H522 lung
HOP-62 NSCLC = system: HOP-62 NSCLC
SK-OV-3 ovarian = system: SK-OV-3 ovarian
NCI-H23 lung = system: NCI-H23 lung
SF-539 CNS = system: SF-539 CNS
UACC-257 melanoma = system: UACC-257 melanoma
OVCAR-5 ovarian = system: OVCAR-5 ovarian
HOP-92 NSCLC = system: HOP-92 NSCLC
CCRF-CEM leukemia = system: CCRF-CEM leukemia
ACHN renal = system: ACHN renal
UACC-62 melanoma = system: UACC-62 melanoma
HL-60(TB) leukemia = system: HL-60(TB) leukemia
HCC-2998 colon = system: HCC-2998 colon
HCT-116 colon = system: HCT-116 colon
OVCAR-4 ovarian = system: OVCAR-4 ovarian
OVCAR-8 ovarian = system: OVCAR-8 ovarian
OVCAR-3 ovarian = system: OVCAR-3 ovarian
HT29 colon = system: HT29 colon
TK-10 renal = system: TK-10 renal
UO-31 renal = system: UO-31 renal
MDA-MB-231 breast = system: MDA-MB-231 breast
NCI-H460 lung = system: NCI-H460 lung
MDA-MB-468 breast = system: MDA-MB-468 breast
SK-MEL-2 melanoma = system: SK-MEL-2 melanoma
HS 578T breast = system: HS 578T breast
A498 renal = system: A498 renal
A549 NSCLC = system: A549 NSCLC
SNB-19 CNS = system: SNB-19 CNS
DU-145 prostate = system: DU-145 prostate
786-0 renal = system: 786-0 renal
LOX IMVI melanoma = system: LOX IMVI melanoma
SF-295 CNS = system: SF-295 CNS
SF-268 CNS = system: SF-268 CNS
SNB-75 CNS = system: SNB-75 CNS
NCI/ADR-RES ovarian = system: NCI/ADR-RES ovarian
SN12C renal = system: SN12C renal
SW-620 colon = system: SW-620 colon
T-47D breast = system: T-47D breast
SK-MEL-28 melanoma = system: SK-MEL-28 melanoma

SMILES: Cc1oc(-c2ccccc2)nc1CN[C@@H]1C[C@@H]2C[C@H]([C@H]1C)C2(C)C
- GI50 (PC-3 prostate): 7.17 µM
- TGI (PC-3 prostate): 23.1 µM
- GI50 (M14 melanoma): 2.21 µM
- TGI (M14 melanoma): 5.78 µM
- GI50 (IGROV1 ovarian): 10.1 µM
- TGI (IGROV1 ovarian): 22.1 µM
- GI50 (SR leukemia): 10.6 µM
- TGI (SR leukemia): 36.7 µM
- GI50 (COLO 205 colon): 2.11 µM
- TGI (COLO 205 colon): 5.3 µM
- GI50 (U251 CNS): 7.61 µM
- TGI (U251 CNS): 22.8 µM
- GI50 (HCT-15 colon): 3.85 µM
- TGI (HCT-15 colon): 15.5 µM
- GI50 (CAKI-1 renal): 13.3 µM
- TGI (CAKI-1 renal): 26.1 µM
- GI50 (MCF7 breast): 7.06 µM
- TGI (MCF7 breast): 21.4 µM
- GI50 (NCI-H226 lung): 8.99 µM
- TGI (NCI-H226 lung): 25 µM
- GI50 (K-562 leukemia): 3.63 µM
- TGI (K-562 leukemia): > 100 µM
- GI50 (BT-549 breast): 4.94 µM
- TGI (BT-549 breast): 19.1 µM
- GI50 (SK-MEL-5 melanoma): 3.32 µM
- TGI (SK-MEL-5 melanoma): 11.9 µM
- GI50 (RPMI-8226 leukemia): 3.82 µM
- TGI (RPMI-8226 leukemia): 19.2 µM
- GI50 (MOLT-4 leukemia): 16.6 µM
- TGI (MOLT-4 leukemia): 45.9 µM
- GI50 (MDA-MB-435): 13.3 µM
- TGI (MDA-MB-435): 26.5 µM
- GI50 (MALME-3M melanoma): 2.87 µM
- TGI (MALME-3M melanoma): 13.6 µM
- GI50 (KM12 colon): 9.49 µM
- TGI (KM12 colon): 21.8 µM
- GI50 (EKVX NSCLC): 11.2 µM
- TGI (EKVX NSCLC): 23.3 µM
- GI50 (NCI-H522 lung): 12.7 µM
- TGI (NCI-H522 lung): 28.4 µM
- GI50 (HOP-62 NSCLC): 14.2 µM
- TGI (HOP-62 NSCLC): 32.4 µM
- GI50 (SK-OV-3 ovarian): 16.8 µM
- TGI (SK-OV-3 ovarian): 32.3 µM
- GI50 (NCI-H23 lung): 12.8 µM
- TGI (NCI-H23 lung): 25.9 µM
- GI50 (SF-539 CNS): 12.5 µM
- TGI (SF-539 CNS): 25 µM
- GI50 (UACC-257 melanoma): 7.95 µM
- TGI (UACC-257 melanoma): 21.4 µM
- GI50 (OVCAR-5 ovarian): 7.9 µM
- TGI (OVCAR-5 ovarian): 20.6 µM
- GI50 (HOP-92 NSCLC): 1.49 µM
- TGI (HOP-92 NSCLC): 12.6 µM
- GI50 (CCRF-CEM leukemia): 18.9 µM
- TGI (CCRF-CEM leukemia): 48.6 µM
- GI50 (ACHN renal): 13.7 µM
- TGI (ACHN renal): 26.5 µM
- GI50 (UACC-62 melanoma): 12.5 µM
- TGI (UACC-62 melanoma): 25 µM
- GI50 (HL-60(TB) leukemia): 18 µM
- TGI (HL-60(TB) leukemia): 37.7 µM
- GI50 (HCC-2998 colon): 4.22 µM
- TGI (HCC-2998 colon): 16.6 µM
- GI50 (HCT-116 colon): 4.3 µM
- TGI (HCT-116 colon): 18.3 µM
- GI50 (OVCAR-4 ovarian): 11.4 µM
- TGI (OVCAR-4 ovarian): 25.8 µM
- GI50 (OVCAR-8 ovarian): 14.1 µM
- TGI (OVCAR-8 ovarian): 31.8 µM
- GI50 (OVCAR-3 ovarian): 12.7 µM
- TGI (OVCAR-3 ovarian): 25.6 µM
- GI50 (HT29 colon): 3.39 µM
- TGI (HT29 colon): 15 µM
- GI50 (TK-10 renal): 15.4 µM
- TGI (TK-10 renal): 31.5 µM
- GI50 (UO-31 renal): 4.65 µM
- TGI (UO-31 renal): 18.8 µM
- GI50 (MDA-MB-231 breast): 4.56 µM
- TGI (MDA-MB-231 breast): 16.9 µM
- GI50 (NCI-H460 lung): 6.32 µM
- TGI (NCI-H460 lung): 20.3 µM
- GI50 (MDA-MB-468 breast): 2.13 µM
- TGI (MDA-MB-468 breast): 8.29 µM
- GI50 (SK-MEL-2 melanoma): 14.5 µM
- TGI (SK-MEL-2 melanoma): 28.4 µM
- GI50 (HS 578T breast): 11.9 µM
- TGI (HS 578T breast): 30.5 µM
- GI50 (A498 renal): 13.5 µM
- TGI (A498 renal): 26.8 µM
- GI50 (A549 NSCLC): 14 µM
- TGI (A549 NSCLC): 33.6 µM
- GI50 (SNB-19 CNS): 14.2 µM
- TGI (SNB-19 CNS): 27.3 µM
- GI50 (DU-145 prostate): 10.1 µM
- TGI (DU-145 prostate): 21.8 µM
- GI50 (786-0 renal): 5.64 µM
- TGI (786-0 renal): 21.1 µM
- GI50 (LOX IMVI melanoma): 5.17 µM
- TGI (LOX IMVI melanoma): 18.1 µM
- GI50 (SF-295 CNS): 15.6 µM
- TGI (SF-295 CNS): 29.1 µM
- GI50 (SF-268 CNS): 11.6 µM
- TGI (SF-268 CNS): 25.7 µM
- GI50 (SNB-75 CNS): 13.2 µM
- TGI (SNB-75 CNS): 26.6 µM
- GI50 (NCI/ADR-RES ovarian): 12.7 µM
- TGI (NCI/ADR-RES ovarian): 25.5 µM
- GI50 (SN12C renal): 10.5 µM
- TGI (SN12C renal): 22.5 µM
- GI50 (SW-620 colon): 11.4 µM
- TGI (SW-620 colon): 24.5 µM
- GI50 (T-47D breast): 4.42 µM
- TGI (T-47D breast): 21.4 µM
- GI50 (SK-MEL-28 melanoma): 7.59 µM
- TGI (SK-MEL-28 melanoma): 20.3 µM
